For experiment [1], the target named is B-cell receptor CD22 (Homo sapiens) (UniProt P20273). The experiment can be described thus: Inhibition of to hFc tagged CD22 (unknown origin) assessed as relative inhibitory potency incubated for 4 hrs by ELISA relative to 1,4-bis-(2-Aza-1-oxo-8-(sodium(5-acetamido-3,5,9-trideoxy-9-(4-phenylbenzamido)-D-glycero-alpha-D-galacto-non-2-ulopyranosyloxyonate))-5-thia-octyl)benzene. On the technique in general: In an ELISA, binding on a coated surface is turned into a signal by an enzyme label.

Experiment [2] has the same target. The experiment can be described thus: Inhibition of CD22 in human Daudi cells assessed as relative inhibitory potency in presence of biotinylated dimeric 2-(78-biotinoylamino-1,4,7,10,13,16-hexaoxa-octadecyl)-1,4-bis(2-aza-l-oxo-8-(sodium(5-acetamido-3,5,9-trideoxy-9-(4-phenylbenzamido)-D-glycero-a-D-galacto-non-2-ulopyranosyloxyonate))-5-thia-octyl) benzene preincubated for 15 mins followed by probe addition incubated for 20 mins by flow cytometric analysis relative to 1,4-bis-(2-Aza-1-oxo-8-(sodium(5-acetamido-3,5,9-trideoxy-9-(4-phenylbenzamido)-D-glycero-alpha-D-galacto-non-2-ulopyranosyloxyonate))-5-thia-octyl)benzene. The experiment is classed as cell-based. The settings on record: time 35.0 min. Background: A flow cytometer gives signals particle by particle.

For experiment [3] the target is unchanged. Put plainly: Inhibition of CD22 (unknown origin) in human Daudi cells assessed as relative inhibitory potency in presence of biotinylated dimeric 2-(78-biotinoylamino-1,4,7,10,13,16-hexaoxa-octadecyl)-1,4-bis(2-aza-l-oxo-8-(sodium(5-acetamido-3,5,9-trideoxy-9-(4-phenylbenzamido)-D-glycero-a-D-galacto-non-2-ulopyranosyloxyonate))-5-thia-octyl) benzene preincubated for 15 mins followed by probe addition incubated for 20 mins by flow cytometric analysis relative to 1,4-Bis-(2-aza-1-oxo-8-(sodium-(5-acetamido-3,5-dideoxy-D-glycero-alpha-D-galacto-non-2-ulopyranosyloxyonate))-5-thia-octyl)benzene. The experiment is classed as cell-based. The note with it: time 35.0 min.

The target of another experiment is T1, B-cell receptor CD22 (Homo sapiens, UniProt P20273).
T1 sequence (P20273 whole entry): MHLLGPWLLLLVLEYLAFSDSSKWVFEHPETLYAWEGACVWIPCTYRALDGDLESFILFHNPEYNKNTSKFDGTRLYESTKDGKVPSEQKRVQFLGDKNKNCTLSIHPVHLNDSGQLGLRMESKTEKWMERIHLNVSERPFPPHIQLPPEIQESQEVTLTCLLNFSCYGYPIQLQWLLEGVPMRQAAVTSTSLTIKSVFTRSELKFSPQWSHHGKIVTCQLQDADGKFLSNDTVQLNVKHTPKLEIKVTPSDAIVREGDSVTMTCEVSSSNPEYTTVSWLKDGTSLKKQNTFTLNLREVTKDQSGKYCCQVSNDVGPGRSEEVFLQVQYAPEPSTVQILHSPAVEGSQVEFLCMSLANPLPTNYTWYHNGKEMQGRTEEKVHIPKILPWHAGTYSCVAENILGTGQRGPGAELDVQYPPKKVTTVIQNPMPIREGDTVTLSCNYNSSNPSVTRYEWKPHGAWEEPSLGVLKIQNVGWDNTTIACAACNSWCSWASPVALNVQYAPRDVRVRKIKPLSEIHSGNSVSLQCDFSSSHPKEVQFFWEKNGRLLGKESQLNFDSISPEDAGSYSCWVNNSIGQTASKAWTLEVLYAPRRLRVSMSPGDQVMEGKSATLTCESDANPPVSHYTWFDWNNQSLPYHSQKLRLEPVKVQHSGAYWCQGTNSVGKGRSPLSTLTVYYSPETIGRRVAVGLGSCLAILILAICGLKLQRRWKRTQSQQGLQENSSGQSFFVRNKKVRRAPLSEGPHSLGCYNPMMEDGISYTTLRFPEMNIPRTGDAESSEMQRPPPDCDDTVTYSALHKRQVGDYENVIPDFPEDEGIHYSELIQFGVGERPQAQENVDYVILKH
The experiment can be described thus: Inhibition hFc tagged CD22 incubated for 4 hrs by ELISA.

Experiment [4] concerns the target B-cell receptor CD22 (Homo sapiens) (UniProt P20273). The experiment can be described thus: Inhibition of hFc tagged CD22 (unknown origin) assessed as relative inhibitory potency incubated for 4 hrs by ELISA relative to 1,4-Bis-(2-aza-1-oxo-8-(sodium-(5-acetamido-3,5-dideoxy-D-glycero-alpha-D-galacto-non-2-ulopyranosyloxyonate))-5-thia-octyl)benzene.

Take `CC(=O)N[C@H]1[C@H]([C@H](O)[C@H](O)CNC(=O)c2ccc(C3CCCCC3)cc2)O[C@@](OCCCSCCNC(=O)c2ccc(C(=O)NCCSCCCO[C@]3(C(=O)O)C[C@H](O)[C@@H](NC(C)=O)[C@H]([C@H](O)[C@H](O)CNC(=O)c4ccc(C5CCCCC5)cc4)O3)cc2)(C(=O)O)C[C@@H]1O`: the results for the fold change (FC) in experiment [1] and in experiment [2] were 0.1 and 0.008, respectively.

On to `CC(=O)N[C@H]1[C@H]([C@H](O)[C@H](O)CNC(=O)c2ccc(-c3ccsc3)cc2)O[C@@](OCCCSCCNC(=O)c2ccc(C(=O)NCCSCCCO[C@]3(C(=O)O)C[C@H](O)[C@@H](NC(C)=O)[C@H]([C@H](O)[C@H](O)CNC(=O)c4ccc(-c5ccsc5)cc4)O3)cc2)(C(=O)O)C[C@@H]1O`, for which the values for the fold change (FC) in experiment [1] and in experiment [2] were 1.6 and 0.71, respectively.

Regarding `CC(=O)N[C@H]1[C@H]([C@H](O)[C@H](O)CNC(=O)c2ccc(-c3ccccc3)cc2)O[C@@](OCCCSCCNC(=O)c2ccc(C(=O)NCCSCCCO[C@]3(C(=O)O)C[C@H](O)[C@@H](NC(C)=O)[C@H]([C@H](O)[C@H](O)CNC(=O)c4ccc(-c5cccs5)cc4)O3)cc2)(C(=O)O)C[C@@H]1O`, the fold change (FC) in experiment [1] was 1.2; in experiment [2] it was 3.7.

Turning to `CC(=O)N[C@H]1[C@H]([C@H](O)[C@H](O)CNC(=O)c2ccc(-c3ccccc3Cl)cc2)O[C@@](OCCCSCCNC(=O)c2ccc(C(=O)NCCSCCCO[C@]3(C(=O)O)C[C@H](O)[C@@H](NC(C)=O)[C@H]([C@H](O)[C@H](O)CNC(=O)c4ccc(-c5ccccc5Cl)cc4)O3)cc2)(C(=O)O)C[C@@H]1O`, the results for the fold change (FC) in experiment [1] and in experiment [2] were 5.3 and 1.3, respectively.

As to `CC(=O)N[C@H]1[C@H]([C@H](O)[C@H](O)CNC(=O)c2ccc(-c3ccccc3)cc2)O[C@@](OCCCSCCNC(=O)c2ccc(C(=O)NCCSCCCO[C@]3(C(=O)O)C[C@H](O)[C@@H](NC(C)=O)[C@H]([C@H](O)[C@H](O)CNC(=O)c4ccc(C5CCCCC5)cc4)O3)cc2)(C(=O)O)C[C@@H]1O`, the fold change (FC) in experiment [3] is 185.

Consider `CC(=O)N[C@H]1[C@H]([C@H](O)[C@H](O)CNC(=O)c2ccc(-c3ccccc3)cc2)O[C@@](OCCCSCCNC(=O)c2ccc(C(=O)NCCSCCCO[C@]3(C(=O)O)C[C@H](NS(=O)(=O)O)[C@@H](NC(C)=O)[C@H]([C@H](O)[C@H](O)CNC(=O)c4ccc(-c5ccccc5)cc4)O3)cc2)(C(=O)O)C[C@@H]1NS(=O)(=O)O`, for which the fold change (FC) in experiment [1] was determined as 65; in experiment [2] it was 138.

In the case of `CC(=O)N[C@H]1[C@H]([C@H](O)[C@H](O)CNC(=O)c2ccc(-c3cccs3)s2)O[C@@](OCCCSCCNC(=O)c2ccc(C(=O)NCCSCCCO[C@]3(C(=O)O)C[C@H](O)[C@@H](NC(C)=O)[C@H]([C@H](O)[C@H](O)CNC(=O)c4ccc(-c5cccs5)s4)O3)cc2)(C(=O)O)C[C@@H]1O`, the fold change (FC) in experiment [1] stood at 4.5; in experiment [2], 0.07.

Turning to `CC(=O)N[C@H]1[C@H]([C@H](O)[C@H](O)CNC(=O)c2ccc(-c3ccccc3)cc2)O[C@@](OCCC[S+]([O-])CCNC(=O)c2ccc(C(=O)NCC[S+]([O-])CCCO[C@]3(C(=O)O)C[C@H](O)[C@@H](NC(C)=O)[C@H]([C@H](O)[C@H](O)CNC(=O)c4ccc(-c5ccccc5)cc4)O3)cc2)(C(=O)O)C[C@@H]1O` (stereo not given in full), the fold change (FC) in experiment [1] came to 0.49; in experiment [2] it was 0.013.

As for `CC(=O)N[C@H]1[C@H]([C@H](O)[C@H](O)CNC(=O)c2ccc(-c3ccccc3)cc2)O[C@@](OCCCSCCNC(=O)c2ccc(C(=O)NCCSCCCO[C@]3(C(=O)O)C[C@H](O)[C@@H](NC(C)=O)[C@H]([C@H](O)[C@H](O)CNC(=O)c4ccc(-c5ccccc5)cc4)O3)c(OCCOCCOCCOCCOCCOCCN)c2)(C(=O)O)C[C@@H]1O`, in experiment [2], the fold change (FC) was 0.14.

Consider `CC(=O)N[C@H]1[C@H]([C@H](O)[C@H](O)CNC(=O)c2ccc(-c3ccccc3)cc2)O[C@@](OCCCSCCNC(=O)c2ccc(C(=O)NCCSCCCO[C@]3(C(=O)O)C[C@H](O)[C@@H](NC(C)=O)[C@H]([C@H](O)[C@H](O)CNC(=O)c4ccc(-c5ccccc5)cc4)O3)c(Br)c2)(C(=O)O)C[C@@H]1O`, for which the fold change (FC) in experiment [1] was determined as 0.77; in experiment [2] it was 5.9.

With `CC(=O)N[C@H]1[C@H]([C@H](O)[C@H](O)CNC(=O)c2ccc(-c3ccccc3)cc2)O[C@@](OCc2cn(CCNC(=O)c3ccc(C(=O)NCCn4cc(CO[C@]5(C(=O)O)C[C@H](O)[C@@H](NC(C)=O)[C@H]([C@H](O)[C@H](O)CNC(=O)c6ccc(-c7ccccc7)cc6)O5)nn4)cc3)nn2)(C(=O)O)C[C@@H]1O`, the values for the fold change (FC) in experiment [1] and in experiment [2] were 0.18 and 0.0028, respectively.

For `CC(=O)N[C@H]1[C@H]([C@H](O)[C@H](O)CO)O[C@@](OCCCSCCNC(=O)c2ccc(C(=O)NCCSCCCO[C@]3(C(=O)O)C[C@H](O)[C@@H](NC(C)=O)[C@H]([C@H](O)[C@H](O)CO)O3)cc2)(C(=O)O)C[C@@H]1O`, the results for the fold change (FC) in experiment [1] and in experiment [2] were 0.01 and 0.00034, respectively.

On to `CC(=O)N[C@H]1[C@H]([C@H](O)[C@H](O)CNC(=O)c2ccc(-c3ccccc3)cc2)O[C@@](OCCCSCCC(=O)Nc2ccc(NC(=O)CCSCCCO[C@]3(C(=O)O)C[C@H](O)[C@@H](NC(C)=O)[C@H]([C@H](O)[C@H](O)CNC(=O)c4ccc(-c5ccccc5)cc4)O3)cc2)(C(=O)O)C[C@@H]1O`, for which the fold change (FC) turned out to be 0.1 in experiment [1] and 1.5 in experiment [2].

With `CC(=O)N[C@H]1[C@H]([C@H](O)[C@H](O)CNC(=O)c2ccc(-c3ccccc3)cc2)O[C@](C(=O)O)(n2cc(CCCCNC(=O)c3ccc(C(=O)NCCCCc4cn([C@]5(C(=O)O)C[C@H](O)[C@@H](NC(C)=O)[C@H]([C@H](O)[C@H](O)CNC(=O)c6ccc(-c7ccccc7)cc6)O5)nn4)cc3)nn2)C[C@@H]1O`, the fold change (FC) is 0.86 in experiment [1] and less than 0.0001 in experiment [2].

For `CC(=O)N[C@H]1[C@H]([C@H](O)[C@H](O)CNC(=O)c2ccc(-c3ccccc3)cc2)O[C@@](OCCCSCCNCc2ccc(CNCCSCCCO[C@]3(C(=O)O)C[C@H](O)[C@@H](NC(C)=O)[C@H]([C@H](O)[C@H](O)CNC(=O)c4ccc(-c5ccccc5)cc4)O3)cc2)(C(=O)O)C[C@@H]1O`, the fold change (FC) in experiment [1] amounted to 0.1; in experiment [2], 0.011.

In the case of `CC(=O)N[C@H]1[C@H]([C@H](O)[C@H](O)CNC(=O)c2ccc(-c3ccccc3)cc2)O[C@@](OCCCSCCNC(=O)c2cccc(C(=O)NCCSCCCO[C@]3(C(=O)O)C[C@H](O)[C@@H](NC(C)=O)[C@H]([C@H](O)[C@H](O)CNC(=O)c4ccc(-c5ccccc5)cc4)O3)c2)(C(=O)O)C[C@@H]1O`, the fold change (FC) in experiment [1] turned out to be 0.79; in experiment [2], 0.11.

As for `CC(=O)N[C@H]1[C@H]([C@H](O)[C@H](O)CNC(=O)c2ccc(-c3ccccc3)cc2)O[C@@](OCCCSCCNC(=O)c2ccc(-c3ccc(C(=O)NCCSCCCO[C@]4(C(=O)O)C[C@H](O)[C@@H](NC(C)=O)[C@H]([C@H](O)[C@H](O)CNC(=O)c5ccc(-c6ccccc6)cc5)O4)cc3)cc2)(C(=O)O)C[C@@H]1O`, the fold change (FC) in experiment [1] stood at 0.17; in experiment [2], 0.01.

For the compound `CC(=O)N[C@H]1[C@H]([C@H](O)[C@H](O)CNC(=O)c2ccc(-c3ccccc3)cc2)O[C@@](OCCCSCCNC(=O)c2ccccc2)(C(=O)O)C[C@@H]1O`, the midpoint of inhibition against B-cell receptor CD22, the IC50, lay at 0.32 nM. In experiment [4], the fold change (FC) amounted to 128.

For the compound `CC(=O)N[C@H]1[C@H]([C@H](O)[C@H](O)CNC(=O)c2ccc(-c3ccccc3)cc2)O[C@@](OCCCSCCNC(=O)c2ccc(C(=O)NCCSCCCO[C@]3(C(=O)O)C[C@H](NS(=O)(=O)O)[C@@H](NC(C)=O)[C@H]([C@H](O)[C@H](O)CNC(=O)c4ccc(-c5ccccc5)cc4)O3)c(OCCOCCOCCOCCOCCOCCN)c2)(C(=O)O)C[C@@H]1NS(=O)(=O)O`, in experiment [2], the fold change (FC) was 34.

Values taken from ChEMBL document CHEMBL5113508, “Targeting Human CD22/Siglec-2 with Dimeric Sialosides as Novel Oligosaccharide Mimetics” (J Med Chem, 2022).
